The structures appear in SMILES notation.

The subject of this test is PC3 cells. Put plainly: NAMPT Cell Proliferation Assay. Type of test: cell-based. Particulars: Homo sapiens, PC-3, 120 h, 5 days incubation, cell viability by Cell Titer Glo. The gist of the method: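 Proliferation of PC3 cells treated 5 days with a 10-fold compound series (top 10 μM) was quantified by Cell Titer Glo luminescence; IC50s were fitted from percent inhibition.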
On the technique in general: Cellular ATP, detected with luciferase, serves as a proxy for viable cell number.
As for `O=C(NCc1ccc2ncnn2c1)c1ccc(C2CCN(C(=O)c3cccc(F)c3)CC2)s1` [Example 832, 5-[1-(3-fluorobenzoyl)piperidin-4-yl]-N-([1,2,4]triazolo[1,5-a]pyridin-6-ylmethyl)thiophene-2-carboxamide], half-maximal inhibition (IC50) was put at 10.1 nM.
In the case of `Cn1nc(C2CC2)cc1C(=O)N1CCC(c2ccc(C(=O)NCc3ccn4ccnc4c3)cc2)CC1` [Example 960, 4-{1-[(3-cyclopropyl-1-methyl-1H-pyrazol-5-yl)carbonyl]piperidin-4-yl}-N-(imidazo[1,2-a]pyridin-7-ylmethyl)benzamide], the IC50 – broadly, the concentration that gives 50% inhibition – worked out at 6.13 nM.
The molecule `N#Cc1ccsc1C(=O)N1CCC(c2ccc(NC(=O)NCc3ccn4ccnc4c3)cc2)CC1` [Example 1139, 1-(4-{1-[(3-cyanothiophen-2-yl)carbonyl]piperidin-4-yl}phenyl)-3-(imidazo[1,2-a]pyridin-7-ylmethyl)urea] returned an IC50 of 1.41 nM.
Molecule `CC(C)C1CCCN1C(=O)c1ccc(C(=O)NCc2ccn3ccnc3c2)cc1` (stereo not shown) [Example 910, N-(imidazo[1,2-a]pyridin-7-ylmethyl)-4-{[2-(propan-2-yl)pyrrolidin-1-yl]carbonyl}benzamide] returned an IC50 greater than 10000 nM.
As for `O=C(Cc1ccn2ccnc2c1)Nc1ccc(C2CCN(C(=O)c3ccc(F)cc3F)CC2)cc1` [Example 902, N-{4-[1-(2,4-difluorobenzoyl)piperidin-4-yl]phenyl}-2-(imidazo[1,2-a]pyridin-7-yl)acetamide], the figure is 10.8 nM; as for `O=C(NCc1ccn2ccnc2c1)c1ccc(C2CCN(C(=O)c3cnc(C4CC4)s3)CC2)cc1` [Example 1084, 4-{1-[(2-cyclopropyl-1,3-thiazol-5-yl)carbonyl]piperidin-4-yl}-N-(imidazo[1,2-a]pyridin-7-ylmethyl)benzamide], 14.8 nM; as for `O=C(NCc1ccn2ccnc2c1)Nc1ccc(C2CCN(C(=O)c3ccc4occc4c3)CC2)cc1` [Example 1144, 1-{4-[1-(1-benzofuran-5-ylcarbonyl)piperidin-4-yl]phenyl}-3-(imidazo[1,2-a]pyridin-7-ylmethyl)urea], 9.6 nM.
As for `O=C(NCc1ccn2ccnc2c1)c1ccc(C2CCN(C(=O)c3ccn(C4CCCC4)n3)CC2)cc1` [Example 967, 4-{1-[(1-cyclopentyl-1H-pyrazol-3-yl)carbonyl]piperidin-4-yl}-N-(imidazo[1,2-a]pyridin-7-ylmethyl)benzamide], the figure is 3.96 nM; as for `COCc1ccccc1C(=O)N1CCC(c2ccc(C(=O)NCc3ccn4ccnc4c3)cc2)CC1` [Example 925, N-(imidazo[1,2-a]pyridin-7-ylmethyl)-4-{1-[2-(methoxymethyl)benzoyl]piperidin-4-yl}benzamide], 2.06 nM.
For the molecule `O=C(NCc1ccn2ccnc2c1)c1ccc(S(=O)(=O)c2ccccc2)cc1` [Example 881, N-(imidazo[1,2-a]pyridin-7-ylmethyl)-4-(phenylsulfonyl)benzamide], the IC50 amounted to 8490 nM.
With `O=C(NCc1cn2ccnc2cn1)c1ccc(C2CCN(C(=O)c3ccc(F)cc3F)CC2)s1` [Example 829, 5-[1-(2,4-difluorobenzoyl)piperidin-4-yl]-N-(imidazo[1,2-a]pyrazin-6-ylmethyl)thiophene-2-carboxamide], the IC50 was found to be 1.77 nM.
As for `CC1=C(C(=O)N2CCC(c3ccc(C(=O)NCc4ccn5ccnc5c4)cc3)CC2)CCC1` [Example 916, N-(imidazo[1,2-a]pyridin-7-ylmethyl)-4-{1-[(2-methylcyclopent-1-en-1-yl)carbonyl]piperidin-4-yl}benzamide], the figure is 6.73 nM; as for `CC(C)(CN)Cn1cc(-c2ccc(C(=O)NCc3ccn4ccnc4c3)s2)cn1` [Example 1083, 5-[1-(3-amino-2,2-dimethylpropyl)-1H-pyrazol-4-yl]-N-(imidazo[1,2-a]pyridin-7-ylmethyl)thiophene-2-carboxamide], 0.92 nM; as for `O=C(NCc1cn2ccnc2cn1)c1ccc(C2CCN(C(=O)CC(F)(F)F)CC2)cc1F` [Example 1161, 2-fluoro-N-(imidazo[1,2-a]pyrazin-6-ylmethyl)-4-[1-(3,3,3-trifluoropropanoyl)piperidin-4-yl]benzamide], 61 nM.
`CC(=O)c1ccccc1C(=O)N1CCC(c2ccc(C(=O)NCc3ccn4ccnc4c3)cc2)CC1` [Example 924, 4-[1-(2-acetylbenzoyl)piperidin-4-yl]-N-(imidazo[1,2-a]pyridin-7-ylmethyl)benzamide]: the IC50 was 18 nM.
As for `CCC(CC)C(=O)N1CCC(c2ccc(NC(=O)NCc3ccn4ccnc4c3)cc2)CC1` [Example 942, 1-{4-[1-(2-ethylbutanoyl)piperidin-4-yl]phenyl}-3-(imidazo[1,2-a]pyridin-7-ylmethyl)urea], the figure is 1.02 nM; as for `CC(C)CC1CCCN1C(=O)c1ccc(C(=O)NCc2ccn3ccnc3c2)cc1` (stereo not shown) [Example 877, N-(imidazo[1,2-a]pyridin-7-ylmethyl)-4-{[2-(2-methylpropyl)pyrrolidin-1-yl]carbonyl}benzamide], greater than 10000 nM; as for `O=C(NCc1ccn2ccnc2c1)c1ccc(C(=O)NCc2cc(F)ccc2F)cc1` [Example 909, N-(2,5-difluorobenzyl)-N′-(imidazo[1,2-a]pyridin-7-ylmethyl)benzene-1,4-dicarboxamide], 7210 nM.
On to `O=C(NCc1cn2ccnc2cn1)c1ccc(C2CCN(C(=O)C3CCOCC3)CC2)s1` [Example 841, N-(imidazo[1,2-a]pyrazin-6-ylmethyl)-5-[1-(tetrahydro-2H-pyran-4-ylcarbonyl)piperidin-4-yl]thiophene-2-carboxamide], for which the IC50 was 6.13 nM.
With `COc1cccc(OC)c1C(=O)N1CCC(c2ccc(C(=O)NCc3ccn4ccnc4c3)cc2)CC1` [Example 927, 4-[1-(2,6-dimethoxybenzoyl)piperidin-4-yl]-N-(imidazo[1,2-a]pyridin-7-ylmethyl)benzamide], the IC50 amounted to 7.13 nM.
`COc1ccsc1C(=O)N1CCC(c2ccc(NC(=O)NCc3ccn4ccnc4c3)cc2)CC1` [Example 1051, 1-(imidazo[1,2-a]pyridin-7-ylmethyl)-3-(4-{1-[(3-methoxythiophen-2-yl)carbonyl]piperidin-4-yl}phenyl)urea] gave an IC50 of 0.313 nM.
Take `COc1cccc(C(=O)Nc2ccc(C(=O)NCc3ccn4ccnc4c3)cc2)c1` [Example 875, N-{4-[(imidazo[1,2-a]pyridin-7-ylmethyl)carbamoyl]phenyl}-3-methoxybenzamide]: the IC50 stood at 1140 nM.
For `COC1CCC(C(=O)N2CCC(c3ccc(C(=O)NCc4ccn5ccnc5c4)cc3)CC2)CC1` (stereo not shown) [Example 977, N-(imidazo[1,2-a]pyridin-7-ylmethyl)-4-{1-[(4-methoxycyclohexyl)carbonyl]piperidin-4-yl}benzamide], the IC50 was 2.65 nM.
The result for `O=C(NCc1ccn2ccnc2c1)c1ccc(NC(=O)c2ccc(F)c(F)c2)cc1` [Example 872, 3,4-difluoro-N-{4-[(imidazo[1,2-a]pyridin-7-ylmethyl)carbamoyl]phenyl}benzamide] reads greater than 10000 nM.
`N#Cc1ccc(F)c(C(=O)N2CCC(c3ccc(C(=O)NCc4ccn5ccnc5c4)cc3)CC2)c1` [Example 985, 4-[1-(5-cyano-2-fluorobenzoyl)piperidin-4-yl]-N-(imidazo[1,2-a]pyridin-7-ylmethyl)benzamide]: the half-inhibitory concentration (IC50) worked out at 28.3 nM.

The values above are taken from US9187472B2 (AbbVie Inc., priority 2012, dated 2015).
